The subject of assay [1] is bleomycin induced ALI mouse model. The assay can be described thus: Lung compliance (flexiVent) in bleomycin ALI model. The class given is in vivo. Particulars: for lung compliance, PKC-ζi instilled post injury: measured at one week; for lung compliance: week 1 post injury, PKCζi given with bleomycin and every 72 hours. Here is the method: (§1) (4) PKC-ζi partially preserves lung compliance. Briefly, trachea was surgically exposed and tracheal cannula (18 gauge, Angiocath, Becton Dickinson, Sandy, Utah, USA) placed and secure in the lumen. The mice were paralyzed using intraperitoneal rocuronium (1 mg/Kg) to prevent spontaneous breathing and mechanically ventilated on a computer controlled respirator (flexiVent, SCIREQ Inc., Montreal, Canada). The ventilator was set up to deliver tidal volume 6 ml/kg for 10 minutes; respiratory rate of 150 breaths/min; 3 cmH2O positive end expiratory pressure (PEEP). The compliance was determined using the maneuver Pressure-volume ramp volume regulated (PVrV) to calculate the Quasi-static compliance. […] Since lung compliance is the product of an intact epithelial barrier and surfactant production, and PKCζ have been reported to be involved in surfactant production (Gobran et al., (1998). “PKCζ isoforms and other signaling proteins involved in surfactant secretion in developing rat type II cells.” Am J Physiol 274(6 Pt 1): L901-907), the inventors decided to examine by Western blot analysis total amount of SPC in BALF. […] Therefore, our results are likely due to preservation of the alveolar epithelial barrier.
(7) Treatment of mice with PKC-ζi after initial injury continues to be effective in preserving lung compliance. Since the majority of clinical scenarios involve the treatment of patients with established ALI, we set out to examine the effect of PKC-ζi post injury by instilling 6 and 24 hours after bleomycin instillation. Lung compliance was measured at one week.
(§2) Animal protocols were approved by the Institutional Animal Care and Use Committee at the University of Iowa. C57BL/6 mice (Jackson Laboratories, Bar Harbor, Me.) were anesthetized followed by intratracheal instillation of: (A) Control (Ctrl): 1 μl of DMSO (Sigma, St. Louis, Mo.) plus 49 μl of PBS; (B) Bleomycin (Bleo): 1 μl of DMSO plus 49 μl of bleomycin (APP pharmaceuticals, LLC Schaumburg, Ill.) dissolved in PBS (4 U/kg); (C) Bleomycin/PKCζi (Bleo/PKCζi): 1 μg of PKCζi (Calbiochem EMD Biosciences, San Diego, Calif.) solubilized in 1 μl of DMSO plus 49 μl of bleomycin (4 U/Kg) dissolved in PBS (Calbiochem EMD Biosciences, San Diego, Calif.). After this treatment, all mice were instilled (50 μl) every 72 hours with 1 μl of DMSO plus 49 μl of PBS in the Ctrl and Bleo group or with 1 μg of PKCζi dissolved in 1 μl of DMSO plus 49 μl of PBS in the Bleo/PKCζi group for the duration of the experiment. Mice were treated for up to 6 weeks (FIG. 1A). All conditions had between 4 to 6 animals.
Mice were anesthetized, paralyzed and lung function assessed with the flexiVent Legacy. (SCIREQ Inc., Montreal, Canada).

Another assay relates to DLEP integrin β4^+ cells. The assay can be described thus: DLEP integrin β4+ cells in mouse lungs by immunofluorescence after bleomycin injury. The class given is in vivo.
Source text: (§3) (8) PKC-ζi promotes proliferation of distal lung epithelial progenitor cells. Recently Chapman et al reported that integrin α6β4 identifies a population of lung cells with regenerative potential in mice (Chapman et al. (2011). “Integrin alpha6beta4 identifies an adult distal lung epithelial population with regenerative potential in mice.” J Clin Invest 121(7): 2855-2862). Furthermore, Li et al, reported same population in human lungs (Li et al. (2013). “Integrin alpha6beta4 identifies human distal lung epithelial progenitor cells with potential as a cell-based therapy for cystic fibrosis lung disease.” PLoS One 8(12): e83624). Therefore, the inventors set out to examine by immunofluorescence the presence of these cells in mouse lungs at 3 and 6 weeks after bleomycin treatment. […] In addition, the inventors isolated mouse α6β4 cells and treated them for 2 weeks with PKC-ζi ([…]).
as §2
After dissection, immunofluorescence labeling was performed on frozen mouse lung tissue sections with polyclonal anti p-PKCζ (Santa Cruz Biotechnology, Dallas, Tex.) or monoclonal β4 antibody (Clone 346-11a, BD Biosciences, San Jose, Calif.) (23). In addition, Terminal deoxynucleotidyltransferase dUTP nick end labeling (TUNEL) staining was performed on week 1 mouse lung tissue sections (24).

In assay [2] the test system is bleomycin induced ALI mouse model. The assay is described as follows: In vivo lung μCT scan in bleomycin ALI model. Particulars: week 6. Here is the method: as §2
High resolution scanning coupled to a computer controlled respirator to reduce ventilation motion artifacts was performed as described previously (27).

A further assay has as its system integrin β4^+ DLEP cells. The assay is described as follows: Isolated integrin β4+ DLEP cell colony proliferation in matrigel. The class given is cell-based, mouse. The conditions noted are these: for number of β4+ colonies: PKCζi 520 nM, two weeks, media with 20% BALF from bleomycin injured mice, vs PBS and DMSO.
Source text: as §3
Integrin β4^+ cells were isolated using flow cytometry and were seeded in matrigel as previously described with modifications (23). Cells were grown for two weeks in the presence of PBS, DMSO (1:1000) or PKCζi (1:1000, 520 nM final concentration PKC). In order to recreate the microenvironment, the media was supplemented with 20% BALF from bleomycin treated mice from week 1 similar to previously described (4).
To test the hypothesis that PKCζ can promote proliferation of β4^+ DLEP cells, integrin β4^+ cells were isolated and the media was supplemented with BALF from bleomycin treated mice from week 1 in the presence of PBS, DMSO or […], in order to recreate the microenvironment in a similar approach as Vaughan and colleagues (4). […] As shown in FIGS. 5 C & D, PKCζi increased proliferation of DLEP integrin β4^+ cells in vitro compared to control.

Assay [3] concerns bleomycin induced ALI mouse model. The assay can be described thus: BALF total protein concentration (alveolar-capillary permeability), Bradford assay. The conditions noted are these: week 1 post injury. The class given is in vivo. As for the experimental part:
as §2
Bronchoalveolar lavage was performed as previously described (18). Total cell count was examined by hemocytometer and the percent of neutrophils cells in the bronchoalveolar lavage fluid (BALF) by cytospin slides stained with Wright's-Giemsa. Total protein concentration was measured by Bradford assay (Bio-Rad, Hercules, Calif.).

Assay [4] has as its system surfactant protein C (SPC). The assay is described as follows: Surfactant protein C (SPC) by Western blot in bleomycin ALI model. The assay is classed as in vivo, mouse. As for the experimental part:
as §1
Animal protocols were approved by the Institutional Animal Care and Use Committee at the University of Iowa. […]
Background: Immunoblotting shows a protein as a band on a membrane.

“Also recorded” adds a separate entry of the source. *: point of attachment. Myristoyl = CCCCCCCCCCCCCC(=O)*

Regarding “N-Myristoyl-Ser-Ile-Tyr-Arg-Arg-Gly-Ala-Arg-Arg-Trp-Arg-Lys-Leu-OH (Myristoyl-SIYRRGARRWRKL-OH; SMILES CCCCCCCCCCCCCC(=O)N[C@@H](CO)C(=O)N[C@H](C(=O)N[C@@H](Cc1ccc(O)cc1)C(=O)N[C@@H](CCCNC(=N)N)C(=O)N[C@@H](CCCNC(=N)N)C(=O)NCC(=O)N[C@@H](C)C(=O)N[C@@H](CCCNC(=N)N)C(=O)N[C@@H](CCCNC(=N)N)C(=O)N[C@@H](Cc1c[nH]c2ccccc12)C(=O)N[C@@H](CCCNC(=N)N)C(=O)N[C@@H](CCCCN)C(=O)N[C@@H](CC(C)C)C(=O)O)[C@@H](C)CC) [PKCζi]”, the “lung compliance, PKC-ζi instilled post injury” value is listed as “prevented the decrease in lung compliance” in assay [1] (instillation 6 hours after bleomycin) and “no protective effect” in assay [1] (instillation 24 hours after bleomycin). For the same substance, the lung compliance result was “partial but statistically significant prevention in the lung compliance decrease compared to bleomycin alone group; also recorded: preserves lung compliance compare to bleomycin” in assay [1] and “partially preserve lung compliance compared to control” in assay [1] (listed as PKC-ζi). Also, the “number of lung DLEP integrin β4+ (α6β4) cells” value is recorded as “an increase in DLEP integrin β4^+ cells in the PKCζi treated mice at week 3” in the assay with DLEP integrin β4^+ cells (week 3 after bleomycin); “an increase trend in α6β44 in the PKC-ζi treated mice” in the assay with DLEP integrin β4^+ cells (week 3 after bleomycin, listed as PKC-ζi); “became statistically significant at week 6; also recorded: increased number of lung DLEP integrin β4^+ cells compared to bleomycin group at week 6” in the assay on DLEP integrin β4^+ cells (week 6 after bleomycin); “became significant at 6 weeks” in the assay with DLEP integrin β4^+ cells (week 6 after bleomycin, listed as PKC-ζi). The “lung injury on μCT” value in assay [2] is “confirmed lung injury resolution; also recorded: complete resolution in the PKCζi group at week 6”; in assay [2] (listed as PKC-ζi), “confirmed lung injury resolution”. Further, in the assay with integrin β4^+ DLEP cells (Example 1, treated for 2 weeks, concentration not given, vs DMSO), the “number of isolated mouse α6β4 cells” value is reported as “increased the number of α6β4 cells compared to DMSO treated cells”. Also, the “number of β4+ colonies” value in the assay with integrin β4^+ DLEP cells was “increased number of large colonies compared to either DMSO or the PBS group”; in the assay with integrin β4^+ DLEP cells (listed as PKC-ζi), “increased the number of β4^+ colonies compared to PBS and DMSO at week 2”. Moreover, the BALF protein concentration entry in assay [3] is on record as “prevented the increase in mice BALF protein concentration compared to bleomycin group; also recorded: prevents increase in BALF protein concentration in bleomycin treated mice”; in assay [3] (listed as PKC-ζ inhibitor), “prevents increased protein content in BAL in bleomycin induced ALI”. Besides, the “total amount of SPC in BALF (Western blot)” value in assay [4] (Example 1) is reported as “did not prevent a reduction in SPC”. Further, in assay [4] (week 1, Example 2), the “total SPC in whole lungs (Western blot)” value is on record as “did not prevent the reduction in SPC caused by bleomycin injury; also recorded: does not prevent total SPC decrease in the lungs”.

Source of the values: patent publication US10328114B2, “Lung injury repair compositions and methods” (University of Iowa Research Foundation, priority 2015, dated 2019).
